Data on two compounds can be found in paper PMC9970268 (Cancer Research Communications, 2022).

In data set [1] the test system is Cdc42. The conditions noted are these: metastatic breast cancer cells; cited from earlier work.
Data set [2] deals with HER-2–positive (HER2+) tumor. Particulars: immunocompromised mice; cited from earlier work.
The conditions of data set [3]: mice; cited from earlier work.
A short description of a further data set: in vivo. The conditions noted are these: rats and dogs.
Data set [4] concerns GFP-HER2-BM cells. Kind of data set: Apoptosis assay (Caspase-Glo3/7). The format is cell-based, human. Particulars: 500 nmol/L, 48 hours. As for the experimental part: (§1) Apoptosis was measured using a Caspase-Glo3/7 Luminescence Assay Kit as per manufacturer's instructions (Promega, Corp.), as described previously ([23]). Briefly, Caspase-3/7 Glo reagent was added and incubated at room temperature for 60 minutes and caspase-3/7 activities were determined by detecting luminescence using Tecan Microplate Reader M100 (Tecan). Data were calculated as fold change from vehicle. (n = 3 biologic replicates: with three technical replicates each).

In another data set the test system is MDA-MB-231 cells. Kind of data set: Apoptosis assay (Caspase-Glo3/7). Particulars: 500 nmol/L, 48 hours. Format: cell-based, human. On the procedure: as §1
In a further data set the test system is MDA-MB-468 cells. Nature of the data set: Apoptosis assay (Caspase-Glo3/7). The format is cell-based, human. Particulars: 500 nmol/L, 48 hours. As for the experimental part:
as §1

Data set [5] deals with MDA-MB-231, GFP-HER2-BM, and MDA-MB-468 cells. Nature of the data set: Apoptosis assay (Caspase-Glo3/7), cell line not specified. The format is cell-based, human. The conditions noted are these: 500 nmol/L, 48 hours. On the procedure: as §1
For data set [6], the system named is GFP-HER2-BM cells. Kind of data set: Transwell directed migration of attached and detached cells. The format is cell-based, human. The conditions noted are these: treated 24 hr. As for the experimental part: migration. Cells treated for 24hr and the attached and detached cell populations recovered and equal cell numbers were seeded on Transwells with […] and incubated for 7 hr.
Cells that migrated to the underside of the membrane were stained with propidium iodide and imaged at 20X. Representatives images are a result from two technical replicates and three […]
(1 picture or pasted object on this page, not shown here)

The target in data set [7] is T1, Rac1(G15A) interaction with Vav2 (Homo sapiens, UniProt P63000, G15A).
T1 construct: purchased Cell Biolabs; host or cells: GEF from MDA-MB-231 lysate
Kind of data set: Rac1 (G15A) pulldown assay, Vav2. The format is binding. The conditions noted are these: 250 nmol/L, 1 hour preincubation, MDA-MB-231 cell lysates. As for the experimental part: MDA-MB-231 cells were lysed in 1% Triton X-100, 20 mmol/L HEPES, pH 7.4, 150 mmol/L NaCl, 5 mmol/L MgCl2, and protease inhibitors, and processed as described previously ([20]). Equal amounts of protein from cleared lysates were incubated for 1 hour at 4°C with glutathione-agarose beads conjugated to GST-Rac1 and GST-Cdc42(G15A) nucleotide-free mutant (Cell Biolabs) that were preincubated (for 1 hour) with vehicle or Rac/Cdc42 inhibitors, as indicated. The beads were washed, and pulldowns were immunoblotted for Vav2 or Ect2.

For data set [8], the target named is T2, Rac1 (Homo sapiens, UniProt P63000). Kind of data set: Nucleotide association assay, catalyzed by Vav2. The format is biochemical. Also on record: purchased Cytoskeleton, Inc. Particulars: 2 or 10 μmol/L, N-MAR-GTP.
Method: (§2) The nucleotide loading on purified Rho GTPases was monitored using a fluorophore-based Rho GEF Exchange Assay Kit as per manufacturer's instructions (Cytoskeleton, Inc.). Drugs were diluted in exchange buffer and incubated with Rac1, Cdc42, or RhoA. […] After the initial five readings (T0), GEFs (Dbs or Vav2) or Ethylenediaminetetraacetic acid (EDTA) was added to stimulate exchange and readings were obtained every 30 seconds for at least 60 cycles.
The target of data set [9] is T2, Rac1. Kind of data set: Nucleotide association assay, induced by EDTA. The conditions noted are these: read-out: inhibition of EDTA-induced loading of N-MAR-GTP on Rac1.
Method: as §2
(§3) After initial five readings, the exchange factor Dbs was added to catalyze the loading of N-
(§4) B. 2µM Rac1 was incubated with 0 or 2 µM
The next data set addresses RhoA (Homo sapiens, UniProt P61586). Kind of data set: Nucleotide association assay, catalyzed by Dbs. The conditions noted are these: 2 μmol/L, N-MAR-GTP.
Data set [10] concerns the target T2, Rac1. Nature of the data set: Rac activation pulldown assay in MDA-MB-231 cells. Particulars: MDA-MB-231, 24 hours, various concentrations.
Method: (§5) Rac-GTP and Cdc42-GTP were detected using Rac Activity Assay or Cdc42 Activity Assay, as per manufacturer's instructions (Cell Signaling Technology). Briefly, total cell lysates were quantified and added equally to PAK-p21–binding domain conjugated Sepharose beads. After 1 hour of incubation, beads were washed, bound proteins extracted in sample buffer, and Rac1-GTP and Cdc42-GTP detected by Western blot analysis using Rac1, Rac1b, or Cdc42 antibody. (n = 3 biological replicates).
(§6) Total cell lysates or pulldowns were Western blotted using routine procedures. The primary antibodies used were anti-Rac (Cell Signaling Technology), anti-Cdc42 (Abcam), anti-PAK1+PAK2+PAK3 (Cell Signaling Technology), anti-pPAK1 (T423)/PAK2 (T402; Abcam), anti-PAK1 + PAK2 + PAK3 (phospho T423; Abcam), Rac1B, and β-actin (Millipore-Sigma).
Another data set has as its target Rac1B splice variant (Homo sapiens, UniProt P63000). Nature of the data set: Rac1B activation pulldown assay in MDA-MB-468 cells. The conditions noted are these: MDA-MB-468, 500 nmol/L, 24 hours.
The target of data set [11] is Cdc42 (Homo sapiens, UniProt P60953). Nature of the data set: Cdc42 activation pulldown assay in MDA-MB-231 cells. Particulars: MDA-MB-231, 24 hours.
Method: as §5, §6
Data set [12] has as its target T2, Rac1. Kind of data set: Rac activation pulldown assay (PAK p21-binding domain). Particulars: GFP-HER2-BM cells, 250 nmol/L, 24 hours.
Method: as §5, §6

Structures are written as SMILES.

Chain of RhoA (P61586 whole entry): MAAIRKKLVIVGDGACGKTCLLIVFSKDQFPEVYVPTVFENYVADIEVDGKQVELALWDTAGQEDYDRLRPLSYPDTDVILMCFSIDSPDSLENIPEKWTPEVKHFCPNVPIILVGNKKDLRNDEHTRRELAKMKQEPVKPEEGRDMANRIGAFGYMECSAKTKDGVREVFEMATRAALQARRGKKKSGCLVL
Chain of Cdc42 (Homo sapiens, UniProt P60953) (P60953 whole entry, the tested form may be a part): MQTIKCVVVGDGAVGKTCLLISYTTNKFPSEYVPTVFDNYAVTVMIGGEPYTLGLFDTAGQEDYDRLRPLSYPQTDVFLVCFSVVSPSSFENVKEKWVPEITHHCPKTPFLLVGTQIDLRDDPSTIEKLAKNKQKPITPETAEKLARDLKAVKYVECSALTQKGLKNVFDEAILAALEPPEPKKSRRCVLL
Method for Rac1B splice variant: as §5, §6
Method for RhoA: as §2, §3, §4

On to `CCn1c2ccccc2c2cc(-n3nncc3-c3ccccc3)ccc21` [MBQ-167], for which, in the data set on Cdc42 [1], the 50% inhibitory concentration (IC50) was 78 nM. Moreover, the “inhibition of HER2+ tumor growth and metastasis to all organs” value in data set [2] is recorded as “approximately 90%”. Moreover, in [3], the half-life in plasma entry was “approximately 2.5 hours” and the “half-life in tumor tissue” value is “approximately 8 hours”. Further, in the data set “in vivo”, the NOAEL came out at 1000 mg/kg.

For the compound `CCn1c2ccccc2c2cc(-n3nncc3-c3cccc(OC)c3)ccc21` [MBQ-168], the Caspase-3/7 activity entry in the data set on GFP-HER2-BM cells [4], in the data set on MDA-MB-231 cells and in the data set with MDA-MB-468 cells was “significantly increased Caspase-3/7 activity” in each case. The “caspase-3/7 activity compared with the vehicle” value in [5] was “three to five times”. The directed migration entry in the data set on GFP-HER2-BM cells [6] is given as “both cell types were inhibited”. Further, the “Rac1(G15A) interaction with Vav2” value in [7] is on record as “no effect”. Besides, the “inhibition of GTP loading on Rac1 catalyzed by Vav2” value on Rac1 [8] is given as at least 30%. Further, on Rac1 [9], the inhibition at 2 µM was around 50%. Also, the “Dbs-catalyzed exchange of RhoA” value at RhoA is given as “did not affect”. Further, on Rac1 [10], the Rac.GTP incorporation result is “inhibits Rac.GTP incorporation in a dose-dependent manner”. For the same compound, the “activation and expression of Rac1B” value at Rac1B splice variant is “inhibited activation of Rac1B, as well as expression”. At Cdc42 [11], the Cdc42 activity result is listed as “reduced in a dose-dependent manner”. The Rac1-GTP entry on Rac1 [12] (attached and detached cell population) is reported as “complete depletion”. Moreover, the “reduction of Rac1 activation (Rac1.GTP)” value on Rac1 [12] (attached cell population) is “approximately 100%”. For the same compound, on Rac1 [12] (detached cell population), the “decrease in Rac1 expression” value is given as “approximately 100%”.

By IC50 is commonly meant the concentration that inhibits the measured activity by half. Usually NOAEL stands for the highest dose or exposure tested at which no adverse effect was seen. As usually defined, the inhibition is the share of the control response that was lost under treatment.
